Converted amounts (≈) assume the structure as drawn. Like-named read-outs stand apart in the source and are kept apart here.
What was measured:
cAMP in THP-1 cells = experiment: cyclic AMP assay in THP-1 cells; format: cell-based; details: Homo sapiens
Procedure: This Example illustrates the cyclic AMP assay in THP-1 cells. THP-1 cells were propagated in RPMI-1640 supplemented with 20% FBS, 0.05 mM β-mercaptoethanol, 100 U/mL penicillin and 100 μg/mL streptomycin at 37° C. in 5% CO2. Before assaying for cAMP response, cells were serum starved in RPMI-1640 supplemented with 0.05 mM (3-mercaptoethanol, 100 U/mL penicillin and 100 μg/mL streptomycin at 37° C. in 5% CO2 for 16 hrs. For 384-well format assays, cells were seeded as 30,000 cells/well in 30 μL/well media with a MultiDrop Combi dispenser (Thermo Scientific, Waltham, Mass.). Subsequently, 2 μL/well of 1.6 mM Ro 20-1724 and 160 uM forskolin in PBS+ (DPBS, 1 mM CaCl2, 0.5 mM MgCl2, 0.05% BSA, 0.005% Tween 20) was dispensed using a BioRAPTR FRD dispenser (Beckman Coulter, Brea, Calif.). Immediately after, 0.25 μL/well of compound solutions in DMSO was dispensed with CyBi-well dispenser (CyBio, Jena, Germany). The cells were allowed to be stimulated with compounds for 30 min at 37° C. in 5% CO2, after which, 8 μL/well of each HTRF cAMP HiRange kit (CisBio, Bedford, Mass.) detection reagent was dispensed with a BioRAPTR FRD dispenser. The detection reagents were diluted as such: K-α-cAMP antibody at 1:20 and cAMP-d2 at 1:18 in HTRF lysis buffer (supplied by the assay kit). The plates were incubated for 30 min at room temperature before the signal was read on an Envision plate reader (PerkinElmer, Waltham, Mass.).

[1] = system: VEGF gene expression in THP1 cells; experiment: VEGF gene expression in THP1 cells (qRT-PCR); format: cell-based, human; details: 2 hours treatment, normalized to GAPDH
From the text: This example illustrates the activation of VEGF expression in THP1 cells by several embodiments of the disclosure.
THP1 cells (human acute monocytic leukemia cell line) were used to analyze the stimulation of VEGF gene expression after treatment with relaxin or compounds. The VEGF stimulation in these cultured endometrial cells is a well-established property of relaxin.^19 This effect is most probably responsible for the observed angiogenic and neovascularization properties of relaxin in various settings.^20 400,000 THP1 cells (0.4 mL at 1×10^6 cells/mL) in test media (RPMI-1640 without phenol red, 0.5% FBS, Ix Pen/Strep, 0.05 mM of 2-mercaptoethanol) were seeded in each well on a 24-well plate. After 24 hours incubation at 37° C., 5% CO2, relaxin or compounds were added for 2 hours. […] Quantitative real time RT-PCR for VEGF and GAPDH gene expression was done using a Roche LightCycler 480 (Roche Diagnostics, Indianapolis, Ind.) with the appropriate set of primers and probes spanning different exons. The relative fold change in VEGF mRNA level was calculated by the comparative Ct (2-ΔΔ^Ct) method using GAPDH expression for normalization of RNA. […]

RXFP1 = target: T1, RXFP1 (Homo sapiens, UniProt Q9HBX9); experiment: RXFP1 cAMP assay in HEK293-RXFP1 cells (HTRF); format: cell-based
T1 construct: expressed in transfected cells
T1 sequence (Q9HBX9 1-757): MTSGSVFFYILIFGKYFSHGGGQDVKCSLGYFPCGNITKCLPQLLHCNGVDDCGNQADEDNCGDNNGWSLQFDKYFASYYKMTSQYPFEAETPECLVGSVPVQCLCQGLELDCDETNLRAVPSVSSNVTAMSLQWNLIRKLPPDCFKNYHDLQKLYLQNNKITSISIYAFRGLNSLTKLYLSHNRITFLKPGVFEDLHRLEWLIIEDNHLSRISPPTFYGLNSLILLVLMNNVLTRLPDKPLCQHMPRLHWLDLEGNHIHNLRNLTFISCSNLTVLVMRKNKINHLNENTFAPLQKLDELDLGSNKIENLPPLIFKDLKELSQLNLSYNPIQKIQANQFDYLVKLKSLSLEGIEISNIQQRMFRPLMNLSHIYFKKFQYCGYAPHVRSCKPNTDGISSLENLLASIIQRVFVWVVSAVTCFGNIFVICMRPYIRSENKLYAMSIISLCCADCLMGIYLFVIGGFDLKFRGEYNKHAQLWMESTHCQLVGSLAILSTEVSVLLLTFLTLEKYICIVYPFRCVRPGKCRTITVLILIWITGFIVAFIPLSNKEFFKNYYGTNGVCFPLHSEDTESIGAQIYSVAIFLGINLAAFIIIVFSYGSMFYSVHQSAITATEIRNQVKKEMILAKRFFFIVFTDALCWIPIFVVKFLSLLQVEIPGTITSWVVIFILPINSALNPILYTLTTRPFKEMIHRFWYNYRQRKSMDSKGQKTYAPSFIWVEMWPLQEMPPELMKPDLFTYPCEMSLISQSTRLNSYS
Procedure: The RXFP1 receptor couples to the Gs protein, and activation of the receptor results in stimulation of cAMP production. […] The TR-FRET between the K-α-cAMP and cAMP-d2 is disrupted by cAMP in the cell lysates, thus allowing TR-FRET detection in a homogenous format that is suitable for HTS. […] The primary screen was carried out in 1536-well format, however, because of a more robust signal to background ratio, all subsequent follow-up experiments were carried out in 384-well format.
For the primary screen, HEK293-RXFP1 cells were seeded at 2,000 cells/well in 3 μL/well media with a MultiDrop Combi dispenser (Thermo Scientific, Logan, Utah), and allowed to attach overnight at 37° C., 5% CO2. […] The cells were allowed to be stimulated with the compounds for 30 minutes at 37° C., 5% CO2, after which, 1 μL/well of each HTRF detection reagent was dispensed with a BioRAPTR FRD dispenser. The detection reagents were diluted before addition as follows: K-α-cAMP antibody at 1:20 and cAMP-d2 at 1:18 in HTRF lysis buffer (supplied by the assay kit). The plates were incubated for 30 minute at room temperature, and then the signal was read on a ViewLux plate reader (PerkinElmer, Waltham, Mass.).
The assay was run according to the following protocol:
Max Response indicates what the maximal amount of functional activity induced by the compound is, as a percentage of the maximal receptor activation induced by high concentrations of forskolin.

RXFP2 = target: T2, RXFP2 (Homo sapiens, UniProt Q8WXD0); experiment: RXFP2 cAMP assay in HEK293-RXFP2 cells; format: cell-based
T2 construct: expressed in transfected cells
T2 sequence (Q8WXD0 whole entry, species assumed): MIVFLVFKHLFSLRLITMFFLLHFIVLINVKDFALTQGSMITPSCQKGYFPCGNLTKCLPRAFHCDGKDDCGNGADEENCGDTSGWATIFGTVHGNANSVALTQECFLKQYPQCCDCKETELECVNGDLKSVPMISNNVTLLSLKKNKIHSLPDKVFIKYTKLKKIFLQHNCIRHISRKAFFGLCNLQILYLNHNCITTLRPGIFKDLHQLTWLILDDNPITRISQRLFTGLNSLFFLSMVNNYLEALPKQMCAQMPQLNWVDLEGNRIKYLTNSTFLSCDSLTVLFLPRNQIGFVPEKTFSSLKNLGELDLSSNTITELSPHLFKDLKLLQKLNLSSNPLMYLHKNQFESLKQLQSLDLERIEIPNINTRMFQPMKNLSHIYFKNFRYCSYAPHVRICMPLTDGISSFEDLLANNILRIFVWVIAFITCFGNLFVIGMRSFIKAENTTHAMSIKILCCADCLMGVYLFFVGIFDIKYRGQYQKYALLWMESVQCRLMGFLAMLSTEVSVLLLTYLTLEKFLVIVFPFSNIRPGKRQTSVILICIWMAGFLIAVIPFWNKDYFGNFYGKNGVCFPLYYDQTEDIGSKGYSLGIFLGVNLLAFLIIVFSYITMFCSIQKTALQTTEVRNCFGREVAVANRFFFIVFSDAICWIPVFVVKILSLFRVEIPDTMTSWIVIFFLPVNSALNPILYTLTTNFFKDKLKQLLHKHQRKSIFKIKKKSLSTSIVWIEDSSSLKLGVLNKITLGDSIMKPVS
Procedure: HEK293 cells stably transfected with RXFP2, the cognate receptor for another relaxin family peptide, insulin-like 3, (HEK293-RXFP2) was used to test compound specificity towards the RXFP1 receptor. For this assay, cells were seeded at 8,000 cells/well in 30 µL/well of media with a MultiDrop Combi dispenser (Thermo Scientific), and allowed to attach overnight at 37° C., 5% CO2. Next, 2 µL/well of 1.6 mM Ro 20-1724 solution in PBS+(DPBS, 1 mM CaCl2, 0.5 mM MgCl2, 0.05% BSA, 0.005% Tween 20) were dispensed using a BioRAPTR FRD dispenser (Beckman Coulter, Brea, Calif.), followed addition of 0.25 μL/well of compound solution in DMSO with CyBi-well dispenser (CyBio, Jena, Germany). The cells were allowed to be stimulated with the compounds for 30 minutes at 37° C., 5% CO2, after which, 8 μL/well of each HTRF detection reagent (diluted according to assay kit directions in HTRF lysis buffer) was dispensed with a BioRAPTR FRD dispenser. The plates were incubated for 30 minute at 37° C., and then the signal was read on a ViewLux plate reader (PerkinElmer, Waltham, Mass.).

PBS solubility = format: physicochemical; details: aqueous buffer
[2] = 0.5 h, THP-1 cells, cAMP HTRF, with Ro 20-1724 and forskolin, 30 min, read-out: EC50
[3] = percentage of the maximal receptor activation induced by high concentrations of forskolin, Tables 1-7, read-out: Max Response
[4] = read-out: RXFP1 AC50 (μM, Max. Resp.): Max. Resp.
[5] = HEK293-RXFP1 cells, cAMP HTRF, with Ro 20-1724, Tables 1-7, read-out: RXFP1 AC50

With `CCOc1ccccc1C(=O)Nc1ccccc1C(=O)Nc1cccc(C(F)(F)F)c1` [Compound 99, 2-Ethoxy-N-(2-((3-(trifluoromethyl)phenyl)carbamoyl)phenyl)benzamide] the EC50 (cAMP in THP-1 cells; [2]) was 471 nM and the “Relative VEGF gene expression (control = 1.0)” value [1] was 1.9.

Work on `COc1ccccc1C(=O)Nc1ccccc1C(=O)Nc1cccc(SC(F)(F)F)c1` [Compound 158] yielded an EC50 (cAMP in THP-1 cells; [2]) of 523 nM.

For `COc1ccccc1C(=O)Nc1ccccc1C(=O)Nc1cccc(S(=O)(=O)C(F)(F)F)c1` [Compound 159, 2-Methoxy-N-(2-((3-((trifluoromethyl)sulfonyl)phenyl)carbamoyl)phenyl)benzamide], the EC50 (cAMP in THP-1 cells; [2]) was 358 nM.

With `O=C(Nc1ccc(F)cc1)c1ccccc1NC(=O)C1CCCCC1` [Example 13] the Emax (RXFP1; [3]) was 74%.

With `C#Cc1cccc(NC(=O)c2ccccc2NC(=O)C2CCCCC2)c1` [Example 21] the Emax (RXFP1; [3]) was 85%.

With `O=C(NCc1ccco1)c1ccccc1NC(=O)c1ccccc1NC(=O)C1CCCCC1` [Example 44] the Emax (RXFP1; [3]) was 45%.

Work on `CC(=O)Nc1ccccc1C(=O)Nc1cccc(C(F)(F)F)c1` [Example 47] yielded an Emax (RXFP1; read-out: Max Response) of 51%.

Compound `O=C(Nc1cccc(C(F)(F)F)c1)c1ccccc1NC(=O)c1ccccc1C(F)(F)F` [Example 70] has an Emax (RXFP1; [3]) of 70%.

`O=C(Nc1ccccc1C(=O)Nc1cccc(C(F)(F)F)c1)c1ccccc1I` [Example 86] showed an Emax (RXFP1; [3]) of 80%.

With `CCOc1ccccc1C(=O)Nc1ccccc1C(=O)Nc1cccc(C(F)(F)F)c1` [Example 99] the Emax (RXFP2; 0.5 h, read-out: RXFP2 AC50 (μM, Max. Resp.): Max. Resp.) was 47%, the AC50 (RXFP2; HEK293-RXFP2 cells, inactive = Maximum response less than 30%, read-out: RXFP2 AC50 (μM, Max. Resp.): AC50) was 9.4 µM and the AC50 (RXFP1; Table 10, read-out: RXFP1 AC50 (μM, Max. Resp.): AC50) was 0.297 µM. For the same compound, the Emax (RXFP1; [3]) was 94%, the Emax (RXFP1; [4]) was 95% and the solubility (PBS solubility) was 1.7 µM (≈ 0.728 µg/mL).

`CCOc1ccccc1C(=O)Nc1ccccc1-c1nc2cc(C(F)(F)F)ccc2[nH]1` [Example 141] gave an Emax (RXFP1; [3]) of 31%.

In the case of `CCOc1ccccc1-c1nc2ccccc2c(=O)n1-c1cccc(-c2nnn[nH]2)c1` [Example 143], the Emax (RXFP1; [3]) is reported as 36%.

`COc1ccccc1C(=O)Nc1ccccc1C(=O)Nc1cccc(S(=O)(=O)C(F)(F)F)c1` [Example 159] showed an Emax (RXFP1; read-out: Max Response) of 99% and an Emax (RXFP1; [4]) of 99%.

Compound `CCOc1ccccc1C(=O)Nc1ccccc1C(=O)Nc1cncc(I)c1` [Example 165] has an AC50 (RXFP1; [5]) of 11.8 µM and an Emax (RXFP1; [3]) of 72%.

In the case of `C/C=C\c1cccc(NC(=O)c2ccccc2NC(=O)c2ccccc2OCC)c1` [Example 169], the AC50 (RXFP1; [5]) is reported as 1.49 µM and the Emax (RXFP1; [3]) is reported as 91%.

In the case of `CCSc1ccccc1C(=O)Nc1ccccc1C(=O)Nc1cccc(S(=O)(=O)C(F)(F)F)c1` [Example 176], the Emax (RXFP1; [3]) is reported as 95%.

Compound `O=C(Nc1cccc(S(=O)(=O)C(F)(F)F)c1)c1ccccc1NC(=O)c1ccccc1OCC(F)(F)F` [Example 177, 2-(2,2,2-Trifluoroethoxy)-N-(2-((3-((trifluoromethyl)sulfonyl)phenyl)carbamoyl)phenyl)benzamide] has an EC50 (cAMP in THP-1 cells; THP-1, 0.5 h) of 107 nM.

For `O=C(Nc1cccc(S(=O)(=O)C(F)(F)F)c1)c1ccccc1NC(=O)c1ccccc1OCC(F)(F)F` [Example 177], the Emax (RXFP1; read-out: Max Response) was 97% and the Emax (RXFP1; [4]) was 97%.

With `CC(C)Oc1ccccc1C(=O)Nc1ccccc1C(=O)Nc1cccc(S(=O)(=O)C(F)(F)F)c1` [Example 178, 2-Isopropoxy-N-(2-(3-(trifluoromethylsulfonyl)phenylcarbamoyl)phenyl)benzamide] the EC50 (cAMP in THP-1 cells; [2]) was 200 nM.

For `CCCOc1ccccc1C(=O)Nc1ccccc1C(=O)Nc1cccc(S(=O)(=O)C(F)(F)F)c1` [Example 179, 2-Propoxy-N-(2-((3-((trifluoromethyl)sulfonyl)phenyl)carbamoyl)phenyl)benzamide], the EC50 (cAMP in THP-1 cells; THP-1, 0.5 h) was 105 nM and the “Relative VEGF gene expression (control = 1.0)” value [1] was 1.5.

In the case of `CCCCOc1ccccc1C(=O)Nc1ccccc1C(=O)Nc1cccc(S(=O)(=O)C(F)(F)F)c1` [Example 180, 2-Butoxy-N-(2-((3-((trifluoromethyl)sulfonyl)phenyl)carbamoyl)phenyl)benzamide], the EC50 (cAMP in THP-1 cells; THP-1, 0.5 h) is reported as 124 nM.

In the case of `CCCCOc1ccccc1C(=O)Nc1ccccc1C(=O)Nc1cccc(S(=O)(=O)C(F)(F)F)c1` [Example 180], the Emax (RXFP1; read-out: Max Response) is reported as 98% and the Emax (RXFP1; [4]) is reported as 98%.
